Data published in US11319322B2, “Substituted aryl ether compound, preparation method thereof, pharmaceutical composition and use thereof” (Xiamen University, priority 2017, dated 2022).

What was measured:
CCDC6-RET-BaF3 = molecular target: T1, CCDC6-RET-BaF3 (Homo sapiens, UniProt P07949); experiment: Growth inhibition of CCDC6-RET-BaF3 cells stably transfected with kinase (MTS); format: cell-based; conditions: 48 h, read-out: CCDC6-RET (IC50/nM)
T1 construct: fused on or other part: Q16204 (Coiled-coil domain-containing protein 6)
T1 sequence (P07949 whole entry, change not shown, the tested form may be a part): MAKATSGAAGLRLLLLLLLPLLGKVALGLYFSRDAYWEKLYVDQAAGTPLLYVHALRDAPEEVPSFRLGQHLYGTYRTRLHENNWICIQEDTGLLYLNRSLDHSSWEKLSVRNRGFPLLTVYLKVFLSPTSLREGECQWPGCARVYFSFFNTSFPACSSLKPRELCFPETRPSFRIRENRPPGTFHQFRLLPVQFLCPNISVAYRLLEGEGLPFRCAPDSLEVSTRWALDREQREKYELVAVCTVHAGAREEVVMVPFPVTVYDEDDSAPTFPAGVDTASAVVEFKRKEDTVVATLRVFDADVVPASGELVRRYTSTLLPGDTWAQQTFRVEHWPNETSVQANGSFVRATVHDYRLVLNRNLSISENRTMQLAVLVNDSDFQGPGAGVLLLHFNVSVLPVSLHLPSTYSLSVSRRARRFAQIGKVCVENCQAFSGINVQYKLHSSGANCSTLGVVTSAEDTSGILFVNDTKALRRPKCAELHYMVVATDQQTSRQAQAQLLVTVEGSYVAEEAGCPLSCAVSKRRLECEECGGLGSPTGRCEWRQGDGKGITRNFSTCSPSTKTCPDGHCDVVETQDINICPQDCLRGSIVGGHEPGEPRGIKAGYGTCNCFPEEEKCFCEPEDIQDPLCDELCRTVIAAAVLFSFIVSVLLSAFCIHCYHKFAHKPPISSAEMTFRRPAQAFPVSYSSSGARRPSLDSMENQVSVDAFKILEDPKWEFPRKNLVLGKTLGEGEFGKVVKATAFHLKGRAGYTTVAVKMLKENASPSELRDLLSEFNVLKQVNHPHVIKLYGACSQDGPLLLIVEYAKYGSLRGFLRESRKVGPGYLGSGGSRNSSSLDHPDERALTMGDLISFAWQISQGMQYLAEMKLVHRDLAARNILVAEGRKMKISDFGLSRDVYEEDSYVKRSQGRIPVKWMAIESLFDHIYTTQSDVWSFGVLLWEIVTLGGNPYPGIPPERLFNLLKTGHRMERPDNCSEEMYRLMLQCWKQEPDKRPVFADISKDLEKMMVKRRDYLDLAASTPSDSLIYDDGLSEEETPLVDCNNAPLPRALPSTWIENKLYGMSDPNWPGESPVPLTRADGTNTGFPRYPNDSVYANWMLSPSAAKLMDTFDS
Procedure: (§1) Growth inhibitory activity of compounds on cell lines stably transfected with kinase
(§2) The activity of compounds against kinase RET is evaluated by their effect of inhibiting growth of cell lines stably transfected with kinase CCDC6-RET-BaF3, KIF5B-RET-BaF3, and wild-type BaF3 (Proc. Natl. Acad. Sci. USA., 2006, 103, 3153-8.). The growth of the cell lines stably transfected with kinase CCDC6-RET-BaF3, KIF5B-RET-BaF3 depends on their kinase activity. If a compound can inhibit the activity of the kinase RET per se or the activity of the RET signaling pathway, the compound can inhibit the growth of BaF3 cells stably transfected with kinase. […] Therefore, a larger ratio between IC50 of a compound to wild-type BaF3 and IC50 of the compound to the cell lines stably transfected with kinase CCDC6-RET-BaF3, KIF5B-RET-BaF3 indicates better targeting.
(§3) The specific test method is given as follows:
(§4) 1) Medium: DMEM (Dulbecco's modified eagle medium) or RPMI 1640 (containing 10% fetal bovine serum, 100 μg/mL ampicillin, 100 μg/mL streptomycin).
(§5) 2) Reagents: MTS reaction solution (containing 2 mg/mL of MTS [3-(4,5-dimethylthiazol-2-yl)-5-(3-carboxymethoxyphenyl)-2-(4-sulfophenyl)-2H-tetrazolium, inner Salt]; 100 μg/mL PES (phenazine […])).
(§6) 3) Compound test: cells stably transfected with kinase (CCDC6-RET-BaF3, KIF5B-RET-BaF3) or wild-type BaF3 cells (2×10^4 cells/well) were incubated into a 96-well culture plate, the volume of cell culture fluid was 90 μL, and then 10 μL of the compound at each gradient concentration was added (the highest concentration was 10 μM, which was diluted stepwise by ⅓, and 8 concentration points were set in total; the system contained 0.1% DMSO (dimethyl sulfoxide)). The cell plate with uniformly mixed compound was cultured in a cell culture incubator (37° C.; 5% CO2) for 48 h, then 20 μL of MTS reaction solution was added, uniformly mixed and incubated in the cell culture incubator (37° C.; 5% CO2) for 1-4 hr, OD values at 490 nm were measured by a microplate reader (VARIOSKAN FLASH, Thermo). Three parallels were set in each group of experiments, with 0.1% (a final concentration) DMSO as a negative control, and a medium without cells or compounds as a blank control. The cell growth inhibition rate was calculated by the following formula: Cell growth inhibition rate %=1−(ODexperimental group−ODblank group)/(ODnegative group−ODblank group)×100%
(§7) 4) IC50 calculation: The semi-inhibitory concentration of the compound acting on cell growth was calculated using GradPad Prism 5 software according to the measured cell growth inhibition rate.

KIF5B-RET-BaF3 = molecular target: T2, KIF5B-RET-BaF3 (Homo sapiens, UniProt P07949); experiment: Growth inhibition of KIF5B-RET-BaF3 cells stably transfected with kinase (MTS); format: cell-based; conditions: 48 h, read-out: KIF5B-RET (IC50/nM)
T2 construct: fused on or other part: P33176 (Kinesin-1 heavy chain)
T2 sequence (P07949 whole entry, change not shown, the tested form may be a part): as above
Procedure: as §1, §2, §3, §4, §5, §6, §7

Compound | GI50 (CCDC6-RET-BaF3) | GI50 (KIF5B-RET-BaF3)
CCn1ncc2c(Oc3cc(C(=O)Nc4ccc(CN5CCN(C)CC5)c(C(F)(F)F)c4)ccc3C)nc(-c3ccncc3)nc21 [II-m-22] | > 10000 nM | –
Cc1ccc(Oc2ncnc3c2ncn3C)cc1C(=O)Nc1ccc(CN2CCN(C)CC2)c(C(F)(F)F)c1 [I-n-13] | 3010 nM | 4850 nM
CC(=O)NCC1CCN(c2ccc(NC(=O)c3ccc(C)c(Oc4nc(-c5ccncc5)nc5ccn(C)c45)c3)cc2C(F)(F)F)CC1 [III-v-3] | 23800 nM | –
CN1CCN(Cc2ccc(C(=O)Nc3cccc(Oc4nc(-c5ccncc5)nc5cc[nH]c45)c3)cc2C(F)(F)F)CC1 [III-h-2] | 16.8 nM | 16.4 nM
CCS(=O)(=O)NC1CCN(c2ccc(NC(=O)c3ccc(C)c(Oc4nc(-c5cccnc5)nc5ccn(C)c45)c3)cc2C(F)(F)F)CC1 [III-v-10] | < 4 nM | –
CN1CCN(Cc2ccc(NC(=O)c3cc(Oc4nc(-c5ccsc5)nc5c4ncn5C)ccc3Cl)cc2C(F)(F)F)CC1 [I-o-11] | 1680 nM | 1560 nM
Cc1ccc(Oc2nc(-c3ccncc3)nc3c2cnn3C)cc1C(=O)Nc1ccc(CN2CCN(C)CC2)c(C(F)(F)F)c1 [II-n-2] | 1520 nM | 440 nM
Cc1ccc(C(=O)Nc2cc(C(F)(F)F)cc(C(F)(F)F)c2)cc1Oc1nc(-c2cccnc2)nc2c1cnn2C [II-v-1] | 7230 nM | 7940 nM
CN1CCN(Cc2ccc(C(=O)Nc3cc(Oc4nc(-c5cccnc5)nc5c4cnn5C)ccc3Cl)cc2C(F)(F)F)CC1 [II-k-1] | 2070 nM | 1390 nM
CN1CCN(Cc2ccc(C(=O)Nc3cccc(Oc4cc(-c5ccncc5)nc5sccc45)c3)cc2C(F)(F)F)CC1 [VII-h-2] | 637 nM | 1080 nM
Cc1ccc(C(=O)Nc2ccc(CN3CCN(C)CC3)c(C(F)(F)F)c2)cc1Oc1nc(-c2ccncc2)nc2c1cnn2C(C)C [II-m-23] | 1100 nM | 916 nM
Cc1ccc(Oc2nc(-c3cccnc3)nc3cc[nH]c23)cc1C(=O)Nc1cc(CN2CCN(C)CC2)cc(C(F)(F)F)c1 [III-r-1] | 4450 nM | 4770 nM
CN1CCN(Cc2ccc(NC(=O)c3cc(Oc4nc(-c5cccc(Cl)c5)nc5nn(C)cc45)ccc3Cl)cc2C(F)(F)F)CC1 [IV-o-4] | 4280 nM | 3110 nM
CN1CCN(Cc2ccc(NC(=O)c3cc(Oc4nc(-c5cccc(O)c5)nc5nn(C)cc45)ccc3Cl)cc2C(F)(F)F)CC1 [IV-o-6] | 4020 nM | 3400 nM
CCC(=O)NCC1CCN(c2ccc(NC(=O)c3ccc(C)c(Oc4nc(-c5cccnc5)nc5ccn(C)c45)c3)cc2C(F)(F)F)CC1 [III-v-4] | < 4 nM | –
CCC(=O)NCC1CCN(c2ccc(NC(=O)c3ccc(C)c(Oc4nc(-c5ccncc5)nc5c4cnn5C)c3)cc2C(F)(F)F)CC1 [II-v-9] | 961 nM | 934 nM
Cc1ccc(Oc2cc(-c3cccnc3)nc3sccc23)cc1C(=O)Nc1ccc(CN2CCN(C)CC2)c(C(F)(F)F)c1 [VII-n-1] | 1690 nM | 1780 nM
CN1CCN(Cc2ccc(NC(=O)c3cc(Oc4nc(-c5cccnc5)nc5c4ncn5C)ccc3Cl)cc2C(F)(F)F)CC1 [I-o-1] | 1470 nM | 1390 nM
CN1CCN(Cc2ccc(NC(=O)c3cc(Oc4nc(-c5ccoc5)nc5nn(C)cc45)ccc3Cl)cc2C(F)(F)F)CC1 [IV-o-10] | 4290 nM | 3760 nM
Cc1ccc(Oc2nc(-c3ccsc3)nc3nn(C)cc23)cc1C(=O)Nc1ccc(CN2CCN(C)CC2)c(C(F)(F)F)c1 [IV-n-11] | 5220 nM | 4210 nM
CN1CCN(Cc2ccc(NC(=O)c3cc(Oc4nc(-c5cccc(O)c5)nc5c4ncn5C)ccc3Cl)cc2C(F)(F)F)CC1 [I-o-6] | 1290 nM | 1360 nM
CCC(=O)NC1CCN(c2ccc(NC(=O)c3ccc(C)c(Oc4nc(-c5ccncc5)nc5ccn(C)c45)c3)cc2C(F)(F)F)CC1 [III-v-8] | 10900 nM | 4340 nM
CN1CCN(Cc2ccc(NC(=O)c3cccc(Oc4nc(-c5ccncc5)nc5cc[nH]c45)c3)cc2C(F)(F)F)CC1 [III-l-2] | 22.7 nM | 5.71 nM
CCS(=O)(=O)NC1CCN(c2ccc(NC(=O)c3ccc(C)c(Oc4nc(-c5cccnc5)nc5c4cnn5C)c3)cc2C(F)(F)F)CC1 [II-v-14] | 73.9 nM | 69.3 nM

Compound | GI50 (CCDC6-RET-BaF3) | GI50 (KIF5B-RET-BaF3)
Cc1ccc(NC(=O)c2ccc(CN3CCN(C)CC3)c(C(F)(F)F)c2)cc1Oc1nc(-c2ccncc2)nc2ccsc12 [VI-i-2] | 5700 nM | 7420 nM
CN1CCN(Cc2ccc(C(=O)Nc3cccc(Oc4nc(-c5ccncc5)nc5c4cnn5C)c3)cc2C(F)(F)F)CC1 [II-h-2] | 140 nM | 106 nM
Cc1ccc(C(=O)Nc2cc(CN3CCN(C)CC3)cc(C(F)(F)F)c2)cc1Oc1nc(-c2cccnc2)nc2c1cnn2C [II-s-1] | 264 nM | 482 nM
CN1CCN(Cc2ccc(C(=O)Nc3cccc(Oc4nc(-c5cccnc5)nc5ccn(C)c45)c3)cc2C(F)(F)F)CC1 [III-h-3] | 4100 nM | 2140 nM
Cc1ccc(Oc2nc(-c3ccncc3)nc3cc[nH]c23)cc1NC(=O)c1ccc(CN2CCN(C)CC2)c(C(F)(F)F)c1 [III-j-2] | 6.06 nM | 2.32 nM
CC(=O)NC1CCN(c2ccc(NC(=O)c3ccc(C)c(Oc4nc(-c5cccnc5)nc5ccn(C)c45)c3)cc2C(F)(F)F)CC1 [III-v-2] | < 4 nM | –
CC(C)n1cnc2c(Oc3ccc(Cl)c(C(=O)Nc4ccc(CN5CCN(C)CC5)c(C(F)(F)F)c4)c3)nc(-c3ccncc3)nc21 [I-o-12] | 55.2 nM | 154 nM
CCC(=O)NCC1CCN(c2ccc(NC(=O)c3ccc(C)c(Oc4nc(-c5ccncc5)nc5cc[nH]c45)c3)cc2C(F)(F)F)CC1 [III-v-13] | 18300 nM | –
Cc1cn(-c2cc(NC(=O)c3ccc(C)c(Oc4nc(-c5ccncc5)nc5c4cnn5C)c3)cc(C(F)(F)F)c2)cn1 [II-t-2] | 1570 nM | 2620 nM
Cc1ccc(Oc2nc(-c3ccsc3)nc3c2cnn3C)cc1NC(=O)c1ccc(CN2CCN(C)CC2)c(C(F)(F)F)c1 [II-j-4] | 2070 nM | 2360 nM
Cc1ccc(NC(=O)c2ccc(CN3CCN(C)CC3)c(C(F)(F)F)c2)cc1Oc1nc(-c2ccncc2)nc2c1cnn2C [II-i-2] | 617 nM | 469 nM
Cc1ccc(C(=O)Nc2ccc(CN3CCN(C)CC3)c(C(F)(F)F)c2)cc1Oc1nc(NC2CC2)nc2c1cnn2C [II-m-14] | 9.31 nM | 21.6 nM
Cc1ccc(C(=O)Nc2ccc(CN3CCN(C)CC3)c(C(F)(F)F)c2)cc1Oc1nc(Nc2cccnc2)nc2c1cnn2C [II-m-11] | 31.8 nM | 14.9 nM
Cc1ccc(NC(=O)c2cccc(C(F)(F)F)c2)cc1Oc1nc(-c2ccncc2)nc2nn(C)cc12 [IV-b-2] | 5870 nM | 4170 nM
Cc1ccc(Oc2cc(-c3cn[nH]c3)nc3[nH]ccc23)cc1C(=O)Nc1ccc(CN2CCN(C)CC2)c(C(F)(F)F)c1 [V-n-12] | 566 nM | 673 nM
Cc1ccc(Oc2nc(-c3ccncc3)nc3c2ncn3C)cc1C(=O)Nc1cccc(C(F)(F)F)c1 [I-f-2] | 4850 nM | 8120 nM
Cc1ccc(Oc2cc(-c3ccncc3)nc3c2ccn3C)cc1C(=O)Nc1ccc(CN2CCN(C)CC2)c(C(F)(F)F)c1 [V-n-16] | 472 nM | 388 nM
Cc1ccc(Oc2nc(-c3ccsc3)nc3c2ncn3C)cc1C(=O)Nc1ccc(CN2CCN(C)CC2)c(C(F)(F)F)c1 [I-n-12] | 2030 nM | 1860 nM
CN1CCN(Cc2cc(NC(=O)c3cccc(Oc4nc(-c5cccnc5)nc5ccn(C)c45)c3)cc(C(F)(F)F)c2)CC1 [III-p-3] | 4530 nM | 3380 nM
Cc1ccc(Oc2nc(-c3ccncc3)nc3c2cnn3C)cc1NC(=O)c1ccc(CN2CCN(C)CC2)c(C(F)(F)F)c1 [II-j-2] | 13.1 nM | –
CCC(=O)NC1CCN(c2ccc(NC(=O)c3ccc(C)c(Oc4nc(-c5cccnc5)nc5ccn(C)c45)c3)cc2C(F)(F)F)CC1 [III-v-7] | 148000 nM | –
CCC(=O)NCC1CCN(c2ccc(NC(=O)c3ccc(C)c(Oc4nc(-c5cccnc5)nc5ccn(C)c45)c3)cc2C(F)(F)F)CC1 [III-v-5] | < 4 nM | –
CC(=O)NCC1CCN(c2ccc(NC(=O)c3ccc(C)c(Oc4nc(-c5cccnc5)nc5ccn(C)c45)c3)cc2C(F)(F)F)CC1 [III-v-6] | < 4 nM | –
